Assay results published in ChEMBL document CHEMBL5120767, “Phlegmacaritones A and B, a Pair of Serratane-Related Triterpenoid Epimers with an Unprecedented Carbon Skeleton from Phlegmariurus carinatus” (J Nat Prod, 2022).
Active and inactive are the calls of the source. The rule behind the calls is not given here.

How the values were obtained:
Assay type in all cases: functional, cell-based
ONS [1] = test: Effect on human ONS cells assessed as increase in EEA1-marked early endosomes at 5 uM after 24 hrs by fluorescence microscopic analysis
ONS [2] = test: Induction of phenotypical changes in human ONS cells at 5 uM after 24 hrs
ONS [3] = test: Effect on human ONS cells assessed as decrease in EEA1-marked early endosomes at 5 uM after 24 hrs by fluorescence microscopic analysis
ONS [4] = test: Effect on human ONS cells assessed as increase in mitochondrial intensity at 5 uM after 24 hrs by fluorescence microscopic analysis
ONS [5] = test: Effect on human ONS cells assessed as increase in LC3b intensity at 5 uM after 24 hrs by fluorescence microscopic analysis
ONS [6] = test: Effect on human ONS cells assessed as increase in alpha-tubulin intensity at 5 uM after 24 hrs by fluorescence microscopic analysis
ONS [7] = test: Effect on human ONS cells assessed as decrease in alpha-tubulin intensity at 5 uM after 24 hrs by fluorescence microscopic analysis

## CC1(C)[C@@H](O)CC[C@]2(C)[C@H]3CC[C@H]4[C@@](C)(CC[C@@H]5[C@]4(C)CC[C@H](OC(=O)CCc4ccc(O)c(O)c4)[C@]5(C)CO)CC3CC[C@@H]12 (stereo not given in full)
ONS [1]
  Activity: Active

## C[C@H]1CC(=O)[C@]23CCCN4CCC[C@]2(C4)C(=O)C[C@@H]3[C@H]1O
ONS [2]
  Activity: Active

## C=C1C=C2C[C@]3(C)CC[C@@H]4[C@](C)(CC[C@@H](O)[C@]4(C)CO)[C@H]3CC[C@@H]2[C@@]2(C)CC[C@@H](O)C(C)(C)[C@H]12
ONS [3]
  Activity: Active
ONS [4]
  Activity: Active
ONS [5]
  Activity: Active
ONS [6]
  Activity: Active

## C=C1C=C2C[C@]3(C)CC[C@@H]4[C@](C)(CC[C@@H](O)[C@]4(C)CO)[C@H]3CC[C@@H]2[C@@]2(C)CC[C@@H](O)[C@@](C)(CO)[C@]12C
ONS [1]
  Activity: Active

## CC1(C)[C@H](O)CC[C@]2(C)[C@H]3CC[C@H]4[C@@](C)(CC[C@@H]5[C@]4(C)CC[C@@H](O)[C@]5(C)C(=O)O)C[C@H]3C(=O)C[C@@H]12
ONS [3]
  Activity: Active
ONS [4]
  Activity: Active
ONS [5]
  Activity: Active
ONS [6]
  Activity: Active

## C[C@@]12CC[C@@H]3[C@](C)(CC[C@@H](O)[C@]3(C)C(=O)O)[C@H]1CC[C@H]1[C@H](C2)C(=O)C[C@H]2[C@](C)(CO)[C@@H](O)CC[C@@]21C
ONS [1]
  Activity: Active

## CC1(C)[C@@H](OC(=O)CCc2ccc(O)c(O)c2)CC[C@@]2(C)[C@H]1CC[C@@]1(C)CC3CC[C@@H]4[C@](C)(CC[C@@H](O)[C@]4(C)CO)[C@H]3CC[C@@H]12 (stereo not given in full)
ONS [3]
  Activity: Active
ONS [4]
  Activity: Active
ONS [5]
  Activity: Active
ONS [6]
  Activity: Active

## CC1(C)[C@@H](O)CC[C@]2(C)[C@H]3CC[C@H]4[C@@](C)(CC[C@@H]5[C@]4(C)CC[C@H](O)[C@]5(C)COC(=O)CCc4ccc(O)c(O)c4)CC3=CC[C@@H]12
ONS [3]
  Activity: Active
ONS [4]
  Activity: Active
ONS [5]
  Activity: Active
ONS [6]
  Activity: Active

## C=C1C=C2C[C@]3(C)CC[C@@H]4[C@](C)(CC[C@@H](O)[C@]4(C)CO)[C@H]3CC[C@@H]2[C@@]2(C)CC[C@@H](O)[C@](C)(CO)[C@H]12
ONS [1]
  Activity: Active

## C[C@@]12CC[C@@H]3[C@](C)(CC[C@@H](O)[C@]3(C)C(=O)O)[C@H]1CC[C@H]([C@@]1(C)CC[C@@H](O)[C@@]3(C)COC(=O)C[C@@H]31)C(=O)C2
ONS [1]
  Activity: Active

## CC1(C)[C@H](O)CC[C@]2(C)[C@H]3CC[C@H]4[C@@](C)(CC[C@@H]5[C@]4(C)CC[C@@H](O)[C@]5(C)CO)CC3=CC(=O)[C@@]12C
ONS [1]
  Activity: Active

## CC1(C)[C@@H](OC(=O)CCc2ccc(O)c(O)c2)CC[C@@]2(C)[C@H]1CC[C@@]1(C)CC3CC[C@H]4C(C)(C)[C@@H](O)CC[C@]4(C)[C@H]3CC[C@@H]12 (stereo not given in full)
ONS [3]
  Activity: Active
ONS [4]
  Activity: Active
ONS [5]
  Activity: Active
ONS [6]
  Activity: Active

## C=C1C=C2C[C@]3(C)CC[C@H]4C(C)(C)[C@H](O)CC[C@]4(C)[C@H]3CC[C@@H]2[C@@]2(C)CC[C@@H](O)C(C)(C)[C@H]12
ONS [3]
  Activity: Active
ONS [4]
  Activity: Active
ONS [5]
  Activity: Active
ONS [6]
  Activity: Active

## C=C1C=C2C[C@]3(C)CC[C@H]4C(C)(C)[C@@H](O)CC[C@]4(C)[C@H]3CC[C@@H]2[C@@]2(C)CC[C@@H](O)[C@](C)(CO)[C@H]12
ONS [3]
  Activity: Active
ONS [4]
  Activity: Active
ONS [5]
  Activity: Active
ONS [2]
  Activity: Active
ONS [6]
  Activity: Active

## CC1(C)[C@H](O)CC[C@]2(C)[C@H]3CC[C@H]4[C@@](C)(CC[C@@H]5[C@]4(C)CC[C@@H](O)[C@]5(C)C(=O)O)C[C@@H]3C(=O)C[C@@H]12
ONS [3]
  Activity: Active
ONS [4]
  Activity: Active
ONS [5]
  Activity: Active
ONS [2]
  Activity: Active
ONS [7]
  Activity: Active

## C=C1C=C2C[C@]3(C)CC[C@@H]4[C@](C)(CC[C@@H](O)[C@]4(C)C(=O)O)[C@H]3CC[C@@H]2[C@@]2(C)CC[C@@H](O)C(C)(C)[C@H]12
ONS [3]
  Activity: Active
ONS [4]
  Activity: Active
ONS [5]
  Activity: Active
ONS [6]
  Activity: Active
